US6921821B2, “Antagonists of melanin concentrating hormone receptor” (Abbott Laboratories, priority 2002, dated 2005)
Where a name gives a salt, the structure may show the parent alone.

biological target: T1, murine MCHR (Mus musculus, UniProt Q8JZL2); experiment: Assay for release of intracellular calcium (FLIPR, Fluo-4), inhibition of MCH-induced Ca++ flux; format: cell-based; settings: test compound at a dose of 10 μM, HEK293 cells expressing the murine MCHR, read-out: inhibition of MCH (MCH induced Ca++ flux / fluorescence)
T1 construct: expressed in transfected cells; host or cells: HEK293
Method: Assay for Release of Intracellular Calcium
Activation of the melanin concentrating hormone receptor (MCHR) by MCH induces the release of Ca^++ from intracellular stores. This intracellular calcium release is measured using a fluorometric imaging plate reader (FLIPR™, Molecular Devices Corp.) in conjunction with the Ca^++-sensitive dye Fluo-4. Release of Ca^++ from intracellular stores causes an increase in fluorescence of the dye that is proportional to Ca^++ concentration. Briefly, the assays are performed as follows. HEK293 cells expressing the murine MCHR are plated overnight at 50,000 cells/well in 96-well plates. The following day, culture medium is removed and replaced with 100 μl/well of D-PBS (+glucose and sodium pyruvate) containing 2.5 μM Fluo-4AM (Molecular Probes), 0.01% Pluronic F-127 and 2.5 mM probenecid. Cells are loaded with the Fluo-4 dye for at least one hour at room temp. After loading, the cells are washed gently to remove extracellular dye and 100 μl of D-PBS (+glucose and sodium pyruvate) is added to each well. Test compounds are prepared at 40 μM in 4% DMSO. The cell plate is placed in the FLIPR™ and 50 μl/well of test compound is delivered. The calcium signal is followed for 3 minutes to assay for potential agonist activity by the test compounds. Then 50 μl/well of 12 nM mouse MCH (in D-PBS containing 0.1% BSA) is added and the ligand-induced calcium signal is followed for an additional 3 minutes. Antagonist activity as determined by the test compounds ability to inhibit MCH induced Ca^++ flux is calculated as % inhibition as described by the following formula: % inhibition=[1−((fTC−fB)÷(fMCH−fB))]×100, where fTC=MCH-induced fluorescence in the presence of test compound; fMCH=MCH-induced fluorescence in the absence of test compound; and fB=Baseline fluorescence.
MCH (3 nM) usually elicits a response of 30,000-40,000 relative fluorescence units (RFU) with a baseline of about 1000 RFU. Fluo-4 fluorescence is measured at 488 nm, with an exposure of 0.40 sec. and F-stop=2.0 and the laser set at 0.40-0.60 W constant light output.

T1 sequence (Q8JZL2 whole entry): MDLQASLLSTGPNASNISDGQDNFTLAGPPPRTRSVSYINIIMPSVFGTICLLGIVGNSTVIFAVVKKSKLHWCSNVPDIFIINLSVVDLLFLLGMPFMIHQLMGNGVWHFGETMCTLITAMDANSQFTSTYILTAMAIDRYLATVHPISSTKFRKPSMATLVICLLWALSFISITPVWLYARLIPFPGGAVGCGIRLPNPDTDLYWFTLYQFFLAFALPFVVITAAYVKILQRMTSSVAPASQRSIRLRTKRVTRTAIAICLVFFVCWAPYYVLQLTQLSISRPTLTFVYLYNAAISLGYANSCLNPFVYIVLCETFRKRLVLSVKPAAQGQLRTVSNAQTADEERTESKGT

Compound | inhibition at 10 µM [%]
CCn1ccc2cc(CN3CCC(Nc4cc(=O)oc5ccc(OC)cc45)CC3)ccc21 [II-33, 6-Methoxy-4-[N-ethylindole-5-ylmethyl-piperidin-4-ylamino]-chromen-2-one] | ≥ 50
CCc1ccc2c(c1)c(NC1CCN(Cc3ccc4occc4c3)CC1)cc(=O)n2C [Compound V-25, 4-(1-Benzofuran-5-ylmethyl-piperidin-4-ylamino)-6-ethyl-1-methyl-1H-quinolin-2-one] | ≥ 50
CCc1ccc2c(c1)c(NC1CCN(Cc3ccc4c(c3)OCO4)CC1)cc(=O)n2CC [Compound V-17, 4-(1-Benzo[1,3]dioxol-5-ylmethyl-piperidin-4-ylamino)-1,6-diethyl-1H-quinolin-2-one] | ≥ 50
COC(=O)c1c(NC2CCN(Cc3ccc4c(c3)OCO4)CC2)c2cc(Cl)ccc2n(C)c1=O [Compound V-39, 4-(1-Benzo[1,3]dioxol-5-ylmethyl-piperidin-4-ylamino)-6-chloro-1-methyl-2-oxo-1,2-dihydro-quinoline-3-carboxylic acid methyl ester] | ≥ 50
O=c1cc(NC2CCN(Cc3ccc4c(c3)OCO4)CC2)c2cc(OC(F)F)ccc2o1 [II-125, 4-(1-Benzo[1,3]dioxol-5-ylmethyl-piperidin-4-ylamino)-6-difluoromethoxy-chromen-2-one] | ≥ 50
COc1ccc2oc(=O)cc(NC3CCN(Cc4cccc5sccc45)CC3)c2c1 [II-101, 4-{[1-(1-benzothien-4-ylmethyl)piperidin-4-yl]amino}-6-methoxy-2H-chromen-2-one] | ≥ 50
COc1ccc2oc(=O)cc(NC3CCN(Cc4ccc(OC(F)F)cc4)CC3)c2c1 [II-43, 4-[1-(4-Difluoromethoxy-benzyl)-piperidin-4-ylamino]-6-methoxy-chromen-2-one trifluoroacetate] | ≥ 50
COc1ccc(CN2CCC(Nc3c(C#N)c(=O)n(C)c4ccc(Cl)cc34)CC2)cc1F [Compound V-32, 6-Chloro-4-[1-(3-fluoro-4-methoxy-benzyl)-piperidin-4-ylamino]-1-methyl-2-oxo-1,2-dihydro-quinoline-3-carbonitrile] | ≥ 50
COc1ccc2oc(=O)cc(NC3CCN(Cc4ccc(C(=O)N5CCN(Cc6ccccc6)CC5)cc4)CC3)c2c1 [II-94, 4-{1-[4-(4-Benzyl-piperazine-1-carbonyl)-benzyl]-piperidin-4-ylamino}-6-methoxy-chromen-2-one; Double TFA Salt] | ≥ 50
COc1ccc2c(c1)c(NC1CCN(Cc3ccc4c(c3)OCO4)CC1)cc(=O)n2C [Compound V-8, 4-(1-Benzo[1,3]dioxol-5-ylmethyl-piperidin-4-ylamino)-6-methoxy-1-methyl-1H-quinolin 2-one] | ≥ 50
O=c1cc(NC2CCN(Cc3ccc4c(c3)OCO4)CC2)c2cc(Cl)ccc2[nH]1 [Compound V-11, 4-(1-Benzo[1,3]dioxol-5-ylmethyl-piperidin-4-ylamino)-6-chloro-1H-quinolin-2-one] | ≥ 50
Cn1c(=O)cc(NC2CCN(Cc3ccc4c(c3)OCO4)CC2)c2cc(C(F)(F)F)ccc21 [Compound V-31, 4-(1-Benzo[1,3]dioxol-5-ylmethyl-piperidin-4-ylamino)-1-methyl-6-trifluoromethyl-1H-quinolin-2-one] | ≥ 50
COc1ccc2c(c1)c(NC1CCN(Cc3ccc4occc4c3)CC1)cc(=O)n2C [Compound V-12, 4-(1-Benzofuran-5-ylmethyl-piperidin-4-ylamino)-6-methoxy-1-methyl-1H-quinolin-2-one] | ≥ 50
O=c1cc(NC2CCN(Cc3ccc4c(c3)OCO4)CC2)c2cccc3c2n1CCC3 [Compound V-36, 1-(1-Benzo[1,3]dioxol-5-ylmethyl-piperidin-4-ylamino)-6,7-dihydro-5H-pyrido[3,2,1-ij]quinolin-3-one] | ≥ 50
O=c1cc(NC2CCN(C/C=C/c3ccccc3)CC2)c2ccccc2n1Cc1ccccc1 [Compound V-44, 1-Benzyl-4-[1-(3-phenyl-allyl)-piperidin-4-ylamino]-1H-quinolin-2-one] | ≥ 50
O=c1cc(NC2CCN(Cc3ccc4c(c3)OCO4)CC2)c2cc(Cl)ccc2n1CC(F)(F)F [Compound V-7, 4-(1-Benzo[1,3]dioxol-5-ylmethylpiperidin-4-ylamino)-6-chloro-1-(2,2,2-trifluoroethyl)-1H-quinolin-2-] | ≥ 50
C=Cc1ccc2oc(=O)cc(NC3CCN(Cc4ccc5ocnc5c4)CC3)c2c1 [II-100, 4-(1-Benzooxazol-5-ylmethyl-piperidin-4-ylamino)-6-vinyl-chromen-2-one] | ≥ 50
O=c1cc(NC2CCN(Cc3ccc4ccccc4c3)CC2)c2cc(OC(F)F)ccc2o1 [II-32, 6-Difluoromethoxy-4-(1-naphthalen-2-ylmethyl-piperidin-4-ylamino)-chromen-2-one] | ≥ 50
COc1ccc2c(c1)c(NC1CCN(Cc3ccc4c(c3)OCO4)CC1)c(C(=O)N(C)C)c(=O)n2C [Compound V-60, 4-(1-Benzo[1,3]dioxol-5-ylmethyl-piperidin-4-ylamino)-6-methoxy-1-methyl-2-oxo-1,2-dihydro-quinoline-3-carboxylic acid dimethylamide] | ≥ 50
C/C(=C\c1ccccc1)CN1CCC(Nc2cc(=O)oc3ccc(Cl)cc23)CC1 [III-18, 6-Chloro-4-[1-(2-methyl-3-phenyl-allyl)-piperidin-4-ylamino]-chromen-2-one] | ≥ 50
CC(c1ccc2c(c1)OCO2)N1CCC(Nc2cc(=O)oc3ccc(Cl)cc23)CC1 (stereo not shown) [II-60, 4-[1-(1-Benzo[1,3]dioxol-5-yl-ethyl)-piperidin-4-ylamino]-6-chloro-chromen-2-one] | ≥ 50

The remaining lines, values ahead:

inhibition at 10 µM [%] | Compound
≥ 50 | CC(=O)c1ccc(CN2CCC(Nc3cc(=O)oc4ccc(Cl)cc34)CC2)cc1 [II-48, 4-[1-(4-Acetyl-benzyl)-piperidin-4-ylamino]-6-chloro-chromen-2-one]
≥ 50 | COc1ccc2oc(=O)cc(NC3CCN(Cc4ccc5c(c4)OCO5)CC3)c2c1 [II-1, 4-(1-Benzo[1,3]dioxol-5-ylmethyl-piperidin-4-ylamino)-6-methoxy-chromen-2-one]
≥ 50 | O=c1cc(NC2CCN(Cc3ccc4ncccc4c3)CC2)c2cc(Cl)ccc2o1 [II-40, 6-Chloro-4-(1-quinolin-6-ylmethyl-piperidin-4-ylamino)-chromen-2-one]
≥ 50 | O=c1cc(NC2CCN(Cc3cccc4ccccc34)CC2)c2cc(Cl)ccc2o1 [II-5, 6-Chloro-4-(1-naphthalen-1-ylmethyl-piperidin-4-ylamino)-chromen-2-one]
≥ 50 | COc1ccc2oc(=O)cc(NC3CCN(Cc4ccc5[nH]ccc5c4)CC3)c2c1 [II-54, 4-[1-(1H-Indol-5-ylmethyl)-piperidin-4-ylamino]-6-methoxy-chromen-2-one]
≥ 50 | O=c1cc(NC2CCN(Cc3cc4ccccc4o3)CC2)c2cc(Cl)ccc2o1 [II-18, 4-(1-Benzofuran-2-ylmethyl-piperidin-4-ylamino)-6-chloro-chromen-2-one]
≥ 50 | O=c1cc(NC2CCN(Cc3ccc4ccoc4c3)CC2)c2cc(Cl)ccc2o1 [II-36, 4-(1-Benzofuran-6-ylmethyl-piperidin-4-ylamino)-6-chloro-chromen-2-one]
≥ 50 | COc1ccc2oc(=O)cc(NC3CCN(Cc4cccc(F)c4)CC3)c2c1 [II-79, 4-[1-(3-Fluoro-benzyl)-piperidin-4-ylamino]-6-methoxy-chromen-2-one trifluoroacetate]
≥ 50 | NC(=O)c1cccc(CN2CCC(Nc3cc(=O)oc4ccc(Cl)cc34)CC2)c1 [II-99, 3-[4-(6-Chloro-2-oxo-2H-chromen-4-ylamino)-piperidin-1-ylmethyl]-benzamide]
≥ 50 | O=c1cc(NC2CCN(Cc3ccc4c(c3)CCO4)CC2)c2cc(Cl)ccc2o1 [II-78, 6-Chloro-4-[1-(2,3-dihydro-benzofuran-5-ylmethyl)-piperidin-4-ylamino]-chromen-2-one]
≥ 50 | Cc1ccc(CN2CCC(Nc3cc(=O)oc4ccc(Cl)cc34)CC2)cc1C [II-71, 6-Chloro-4-[1-(3,4-dimethyl-benzyl)-piperidin-4-ylamino]-chromen-2-one]
≥ 50 | COc1ccc2oc(=O)cc(NC3CCN(Cc4ccc5ocnc5c4)CC3)c2c1 [II-44, 4-(1-Benzooxazol-5-ylmethyl-piperidin-4-ylamino)-6-methoxy-chromen-2-one]
≥ 50 | Cc1cc2cc(CN3CCC(Nc4cc(=O)oc5ccc(Cl)cc45)CC3)ccc2o1 [II-61, 6-Chloro-4-[1-(2-methyl-benzofuran-5-ylmethyl)-piperidin-4-ylamino]-chromen-2-one]
